From ChEMBL document CHEMBL1141280, “Hirtusneanoside, an unsymmetrical dimeric tetrahydroxanthone from the lichen Usnea hirta” (2007)

Key:
Staphylococcus aureus = assay: Antibacterial activity against Staphylococcus aureus; format: functional; settings: read-out: LD50 (the source's name)
Bacillus subtilis = assay: Antibacterial activity against Bacillus subtilis; format: functional; settings: read-out: LD50 (the source's name)

## COC(=O)[C@@]12Oc3cc(C)c(-c4c(C)cc5c(c4O)C(=O)C4=C(O)C[C@@H](C)[C@@H](O)[C@@]4(CO[C@@H]4O[C@@H](C)[C@H](O)[C@@H](O)[C@H]4O)O5)c(O)c3C(=O)C1=C(O)[C@H](C)[C@@H](C)[C@@H]2O [HIRTUSNEANOSIDE]
Staphylococcus aureus
  LC50: 3.4 nM
Bacillus subtilis
  LC50: 14 nM
